In US12485134B2, “Use of nicotinamide riboside, nicotinic acid riboside, reduced nicotinyl riboside compounds, and nicotinyl riboside compound derivatives in formulations” (ChromaDex Inc., priority 2019, dated 2025):

Experiment: Stability of NR-Cl in whey protein isolate solutions (% nicotinamide degradant, vs control of NR-Cl in water only)
Format: physicochemical
Conditions: for increase in nicotinamide: after 1 day at refrigerated conditions
Experimental: A. Solutions of hydrolyzed whey protein isolate (>90% protein, 2-7% degree of hydrolysis) were prepared at varying concentrations and filtered through 0.2 μm sterile filters. An aliquot of sterile nicotinamide riboside chloride (“NR-Cl,” a salt of NR, I) in water solution was spiked into the sterile whey solutions, targeting a final NR-Cl concentration of 1 mmol per liter (0.3 mg/mL). The solutions containing the mixture of hydrolyzed whey and NR-Cl were filtered through 10 kDa molecular weight cutoff centrifuge filters to remove the whey proteins (14-80 kDa) and any NR-Cl that was bound to the proteins. Any NR-Cl that was not bound to the whey proteins was recovered in the filtrate and quantitated by HPLC.
The solutions of hydrolyzed whey protein isolate and NR-Cl were stored at ambient and refrigerated conditions and analyzed at various timepoints for NR-Cl protein binding and stability.
A study measuring the stability of NR-Cl in hydrolyzed and non-hydrolyzed whey protein was conducted with 2 mmol/L NR-Cl (0.6 mg/mL) and 20 mg/mL protein (33.3:1 wt:wt protein:NR-Cl). […] (See Table 5).

Structure (SMILES): NC(=O)c1ccc[n+]([C@@H]2O[C@H](CO)[C@@H](O)[C@H]2O)c1.[Cl-] [NR-Cl, nicotinamide riboside chloride]
- % Nicotinamide (Control (NR-Cl in water only), 0 days ambient): 0.2%
- % Nicotinamide (Control (NR-Cl in water only), 0 days refrigerated): 0.2%
- % Nicotinamide (Control (NR-Cl in water only), 3 days ambient): 3.8%
- % Nicotinamide (Control (NR-Cl in water only), 5 days ambient): 4.8%
- % Nicotinamide (Control (NR-Cl in water only), 7 days ambient): 5.3%
- % Nicotinamide (Control (NR-Cl in water only), 30 days refrigerated): 2.3%
- % Nicotinamide (Hydrolyzed Whey Protein Isolate 20 mg/mL, 2 mmol/L NR-Cl (33.3:1 wt:wt), 0 days refrigerated): 0.1%
- % Nicotinamide (Hydrolyzed Whey Protein Isolate 20 mg/mL, 2 mmol/L NR-Cl (33.3:1 wt:wt), 1 day refrigerated): 0.1%
- % Nicotinamide (Non-Hydrolyzed Whey Protein Isolate 20 mg/mL, 2 mmol/L NR-Cl (33.3:1 wt:wt), 0 days refrigerated): 0.3%
- % Nicotinamide (Non-Hydrolyzed Whey Protein Isolate 20 mg/mL, 2 mmol/L NR-Cl (33.3:1 wt:wt), 1 day refrigerated): 5.4%
- increase in nicotinamide (hydrolyzed whey solution): did not show any increase
- % Nicotinamide (hydrolyzed whey:NR-Cl 18.3:1 (wt:wt), 0 days ambient): 0.1%
- % Nicotinamide (hydrolyzed whey:NR-Cl 18.3:1 (wt:wt), 0 days refrigerated): 0.1%
- % Nicotinamide (hydrolyzed whey:NR-Cl 18.3:1 (wt:wt), 3 days ambient): 2.2%
- % Nicotinamide (hydrolyzed whey:NR-Cl 18.3:1 (wt:wt), 5 days ambient): 3.3%
- % Nicotinamide (hydrolyzed whey:NR-Cl 18.3:1 (wt:wt), 7 days ambient): 3.9%
- % Nicotinamide (hydrolyzed whey:NR-Cl 18.3:1 (wt:wt), 30 days refrigerated): 1.5%
- % Nicotinamide (hydrolyzed whey:NR-Cl 37:1 (wt:wt), 0 days ambient): 0.2%
- % Nicotinamide (hydrolyzed whey:NR-Cl 37:1 (wt:wt), 0 days refrigerated): 0.2%
- % Nicotinamide (hydrolyzed whey:NR-Cl 37:1 (wt:wt), 3 days ambient): 2.1%
- % Nicotinamide (hydrolyzed whey:NR-Cl 37:1 (wt:wt), 5 days ambient): 3.1%
- % Nicotinamide (hydrolyzed whey:NR-Cl 37:1 (wt:wt), 7 days ambient): 3.8%
- % Nicotinamide (hydrolyzed whey:NR-Cl 37:1 (wt:wt), 30 days refrigerated): 1.4%
- % Nicotinamide (hydrolyzed whey:NR-Cl 73:1 (wt:wt), 0 days ambient): 0.2%
- % Nicotinamide (hydrolyzed whey:NR-Cl 73:1 (wt:wt), 0 days refrigerated): 0.2%
- % Nicotinamide (hydrolyzed whey:NR-Cl 73:1 (wt:wt), 3 days ambient): 2.4%
- % Nicotinamide (hydrolyzed whey:NR-Cl 73:1 (wt:wt), 5 days ambient): 3.2%
- % Nicotinamide (hydrolyzed whey:NR-Cl 73:1 (wt:wt), 7 days ambient): 4.2%
- % Nicotinamide (hydrolyzed whey:NR-Cl 73:1 (wt:wt), 30 days refrigerated): 1.6%
- % Nicotinamide (hydrolyzed whey:NR-Cl 147:1 (wt:wt), 0 days ambient): 0.3%
- % Nicotinamide (hydrolyzed whey:NR-Cl 147:1 (wt:wt), 3 days ambient): 2.4%
- % Nicotinamide (hydrolyzed whey:NR-Cl 147:1 (wt:wt), 5 days ambient): 3.4%
- % Nicotinamide (hydrolyzed whey:NR-Cl 147:1 (wt:wt), 7 days ambient): 4.1%
- % Nicotinamide (hydrolyzed whey:NR-Cl 293:1 (wt:wt), 0 days ambient): 0.6%
- % Nicotinamide (hydrolyzed whey:NR-Cl 293:1 (wt:wt), 3 days ambient): 2.8%
- % Nicotinamide (hydrolyzed whey:NR-Cl 293:1 (wt:wt), 7 days ambient): 4.4%
- increase in nicotinamide (non-hydrolyzed whey solution): 5%
